The results in this text go back to US9663453B2, “Metabolites and oximes with vasodilator and hypotensive activity” (Universidad de Antofagasta, priority 2014, dated 2017).

The test system of series [1] is PHE-precontracted rat aorta with endothelium (E+). Description: Vasodilator effect in PHE-precontracted rat aortic rings with intact endothelium (E+). The series is classed as cell-based. The following applies: for EC50: read-out: EC50 (concentration required to achieve 50% relaxation of tissue). On the procedure: (§1) 3-5 months old rats with an average weight of 270±30 g, were used for vascular reactivity experiments.
(§2) Measure of Dilation Activity in Rat Aortic Rings
(§3) Obtaining Aorta rings: Group II rats fasted 24 hours were euthanized by cervical fracture. Thoracic aorta was excised carefully from distal to proximal, from the abdominal aortic bifurcation to aortic arch and placed in a Petri dish containing Krebs-Ringer solution at room temperature with the following composition: 120 mM NaCl; 4.2 mM KCl; 1.18 mM KH2PO4; 1.2 mM MgSO4; 1.3 mM CaCl2; 5 mM C6H12O6; and 25 mM NaHCO3 pH 7.4 and constantly gasified with a mixture of 95% O2 and 5% CO2. After removing blood, fat and connective tissue, the aorta was transversely cut in cylindrical rings 2-3 mm in diameter.
(§4) Mounting of Rings: Each ring was mounted between two triangular stainless steel hooks, one hook was suspended in a glass rod (anchorage) and placed in a Single Organ Chamber with 10 ml Krebs-Ringer constantly aerated with 95% O2 and 5% CO2 gaseous mixture and maintained at 37° C. by thermo regulated pump. The second hook was connected by a thread to an Isometric Force Transducer XDCR (Radnoti Glass Technology Inc. USA.), connected to a data acquisition unit PowerLab 8/30 (ADInstruments). The data were processed using LabChart 7 Pro software, provided by ADInstruments.
(§5) Conditioning of Tissue: After being mounted rings were left to rest with no tension for 30 minutes. Subsequently Krebs-Ringer solution was replaced and rings were allowed to rest for 10 minutes. The rings were then carefully tensioned twice at intervals of 10 minutes each at 1.00 g tension value using micromanipulators. Two settings of tension at 1.40 g at 10 minutes interval each were then made. After the period of stabilization of the tissue, tissue viability was assessed by the addition of solution of 60 mM potassium chloride (KCl). After 10 minutes of contraction of the tissue, it was washed twice at intervals of 5 minutes each before the next addition of KCl.
(§6) Measure of vasodilatory activity: The aortic tissue with endothelium already conditioned was applied a tension of 1.4 g, 1 μM PHE solution was added after 10 minutes. PHE was added cumulatively to each single organ bath after stabilization of PHE-induced contractile response. Stock solutions of 10^−1 M concentration in DMSO were prepared to determine the vasodilatory activity of the isolated metabolites. […] The vasodilator effect was recorded for a period of 30 minutes for each of the concentrations used (FIG. 1). The results are expressed as relaxation percent using the following formula: […]
(§7) wherein R1 is the response induced by PHE and R2 is the response after the extracts are added.
(§8) Endothelium integrity was tested by addition of 1 μM ACh to rings precontracted with 1 uM PHE, and rings were considered with intact endothelium when the ACh dilator response was greater than 80%. While rings with response lower than 10% were discarded (FIG. 2).
(§9) Vascular reactivity experiments were performed to establish the vasodilator action of the isolated compounds. For this, compounds at concentration of 10^−4M were added to the organ chamber, the vasodilatory effect in rings with intact endothelium (E+) and without endothelium (E−) pre-contracted with 1 μM PHE was quantified. We performed parallel vehicle control (DMSO) to discard the relaxing effect of aortic tissue.

For series [2], the system named is anesthetized rats. The experiment in a line: In vivo hypotensive effect in anesthetized rats (mean blood pressure after intravenous administration). The following applies: for % MBP reduction / MBP: mean ± SE. On the procedure:
Animals used were female albino rats of the Sprague-Dawley strain, obtained from the vivarium of the Universidad de Antofagasta. Two groups of animals were used separated by age:
10-14 months old rats with an average weight of 400±70 g, were used for in vivo experiments. These animals were chosen according to their baseline health status of mild hypertension.
In Vivo Tests—Hypotensive Effect in Anesthetized Rats In vivo experiments were performed using the following protocol. Group I rats were anesthetized with a 5% sodium thiopental aqueous solution at doses of 50 mg/kg animal body weight by intraperitoneal injection. The femoral vein was exposed and cannulated with a PE-10 […] catheter for administering extracts, metabolites and drugs. The right carotid artery was exposed and cannulated using a PE-50 […] catheter filled with heparinized saline (100 IU/mL). This catheter was connected to a pressure transducer (TSD104A) coupled to a data acquisition unit MP100 (BIOPAC Systems Inc) for recording blood pressure. The trachea was exposed and cannulated to facilitate spontaneous breathing of animals. Simultaneously, an ECG recording in derivation II (DII-ECG) was performed using an ECG100B (BIOPAC Systems Inc) module connected to a data acquisition unit MP100. The level of anesthesia of the animals was under constant supervision, so as to remain within surgical levels.
Prior to administration of the next dose, blood pressure and ECG recording were monitored until complete recovery of baseline parameters (pressure and ECG). Effects of each administered dose was measured relative to changes in mean blood pressure, diastolic blood pressure, systolic blood pressure, electrocardiographic changes and compared against the effect of propranolol as a positive control at concentration of 10 mg/Kgweight. After completion of each experiment animals were euthanized by an overdose of anesthetic, by femoral route. The results are expressed as % reduction in BMP, parameter determined using the following equation.
Wherein B is the baseline BMP and E is the value of BMP produced by different doses studied.
All records were performed using 3.9.6.1 Acknowledge software (BIOPAC Systems Inc) and statistical analysis was performed using GraphPad Prism 5.03 software (GraphPad Software Inc.)

The subject of series [3] is PHE-precontracted rat aorta without endothelium (E−). Description: Vasodilator effect in PHE-precontracted rat aortic rings without endothelium (E−). The series is classed as cell-based. The following applies: for Emax at 100 µM: read-out: Emax, maximum relaxation effect; for EC50: dose-response curve; for Emax: read-out: Emax (% relaxation) of dose-response curve. On the procedure: as §1, §2, §3, §4, §5, §6, §7, §8, §9

Where [4] appears, read: Rattus norvegicus, compound at 10^−4 M, rings with intact endothelium (E+) pre-contracted with 1 μM PHE, FIG. 5A, read-out: Emax (% relaxation).
Setting [5] is: Rattus norvegicus, dose-response curve, E+.
Setting [6] is: Rattus norvegicus, maximum effect at 10^−4 M, increasing doses, E+, read-out: Emax (% relaxation) of dose-response curve.
[7] abbreviates: Rattus norvegicus, compound at 10^−4 M, rings without endothelium (E−) pre-contracted with 1 μM PHE, FIG. 5B.
[8] abbreviates: Rattus norvegicus, increasing doses up to 10^−4 M, E−.
The mark [9] stands for this setting: dose 10^−8 (head: mg/Kgweight; text: M), intravenous.
The mark [10] stands for this setting: dose 10^−9 (head: mg/Kgweight; text: M), intravenous.
Setting [11] is: dose 10^−10 (head: mg/Kgweight; text: M), intravenous.
The mark [12] stands for this setting: positive control, propranolol 10^−6 M.

Where “and” joins values, the source holds several entries; their conditions need not be identical. Identical values can stand only once. Like-named read-outs stand apart in the source and are kept apart here.

By Emax is commonly meant the greatest response seen or fitted, relative to the assay's reference. For the molecule `CC(=O)OCC[N+](C)(C)C` [ACh, acetylcholine, reference compound], the maximal response (Emax) at 1 µM in series [1] (Rattus norvegicus, 10^−6 M ACh, rings with intact endothelium (E+), FIG. 5A, read-out: Emax (% relaxation), positive control) was determined as 105 ± 5%.
As to `CC(=O)c1ccc(O)c(CC=C(C)C)c1` [Metabolite (A), 4-hydroxy-3-(isopenten-2-yl)-acetophenone], the “% MBP reduction” value in series [2] (dose 10^−4 M, intravenous) was determined as 46.93±1.01%; in series [2] (dose 10^−4 M, intravenous, listed as Metabolite 1), 46.93 ± 1.01%; in series [2] (dose 10^−5 M, intravenous), 45.37 ± 1.09%; in series [2] (dose 10^−6 M, intravenous), 35.92 ± 2.01%; in series [2] (dose 10^−7 M, intravenous), 29.68 ± 3.42%; in series [2] (dose 10^−8 M, intravenous), 25.68 ± 5.24%. Further, the “% MBP reduction” value in series [2] (dose 10^−9 M, intravenous) stood at 23.62 ± 5.76%; in series [2] (dose 10^−10 M, intravenous), 16.56 ± 9.38%. Further, the MBP in series [2] (dose 10^−4 M, intravenous) is 72.12 ± 2.92 mmHg; in series [2] (dose 10^−5 M, intravenous), 74.24 ± 2.76 mmHg; in series [2] (dose 10^−6 M, intravenous), 87.09 ± 1.14 mmHg; in series [2] (dose 10^−7 M, intravenous) it was 95.56 ± 5.01 mmHg; in series [2] (dose 10^−8 M, intravenous), 101.0 ± 8.06 mmHg; in series [2] (dose 10^−9 M, intravenous), 103.8 ± 7.98 mmHg. In addition, the MBP in series [2] (dose 10^−10 M, intravenous) came to 113.4 ± 12.59 mmHg. For the same molecule, the “concentration from which the effect on MBP starts being significant” value in series [2] (intravenous, anesthetized rats) is ≥ 10^−6 M. For the same molecule, the Emax at 100 µM in series [1] (setting [4]) was determined as 122 ± 2.09%; in series [1] (setting [6]) it was 111 ± 7.62%; in series [3] (setting [7]) it was 118 ± 10.7%. Moreover, the EC50 was 8.98 nM in series [1] (setting [5]) and 7.31 nM in series [3] (Rattus norvegicus, E−). Also, the “concentration from which the vasodilator effect started” value in series [1] (dose-response curve, E+) is listed as ≥ 10^−8 M. The Emax in series [3] (setting [8]) was 109 ± 7.53%.
For `C=C(C)[C@@H]1Cc2cc(C(C)=O)c(O)cc2O1` [Metabolite (B), 6-hydroxy-2-isopropenyl-5-acetyl-2,3-dihydrobenzofuran], the figures for the Emax at 100 µM in series [1] (setting [4]), in series [1] (setting [6]) and in series [3] (setting [7]) were 135 ± 3.78%, 112 ± 6.21% and 146 ± 4.49%, respectively. The EC50 in series [1] (setting [5]) came out at 7.16 nM; in series [3] (Rattus norvegicus, E−), 5.94 nM. For the same molecule, in series [1] (dose-response curve, E+), the “concentration from which the vasodilator effect started” value is on record as ≥ 10^−8 M. In addition, the Emax in series [3] (setting [8]) is 109 ± 7.53%.
For the molecule `CC(C)=CCc1cc(/C(C)=N/O)ccc1O` [Oxime (1), 4-hydroxy-3-(isopenten-2-yl)-acetophenoxime], the “% MBP reduction” value in series [2] (dose 10^−7 (head: mg/Kgweight; text: M), intravenous, maximum effect) stood at 70.61 ± 4.32%; in series [2] (dose 10^−7 (head: mg/Kgweight; text: M), intravenous, maximum effect, listed as oxime (1)), 70.61±4.32%; in series [2] (setting [9]), 58.31 ± 3.26%; in series [2] (setting [10]), 38.41 ± 2.35%; in series [2] (setting [11]) it was 36.60 ± 7.90%. In addition, the MBP in series [2] (dose 10^−7 (head: mg/Kgweight; text: M), intravenous) turned out to be 41.65 ± 0.85 mmHg; in series [2] (setting [9]), 59.05 ± 2.09 mmHg; in series [2] (setting [10]), 87.28 ± 1.90 mmHg; in series [2] (setting [11]), 89.84 ± 10.88 mmHg. For the same molecule, the “concentration from which the effect on MBP starts being significant” value in series [2] (intravenous, anesthetized rats) is ≥ 10^−9 M. The “doses that induced acute hypotension and subsequent animal death by cardiac arrest” value in series [2] (intravenous, anesthetized rats) is listed as “higher than 10^−7 M”. The maximal response (Emax) at 100 µM came out at 130 ± 2.54% in series [1] (setting [4]), 119 ± 3.92% in series [1] (setting [6]) and 120 ± 1.74% in series [3] (setting [7]). Further, the EC50 in series [1] (setting [5]) is 6 nM; in series [3] (Rattus norvegicus, E−), 6.56 nM. Also, the tissue relaxation in series [1] (at concentration 10^−5 M, dose-response curve, E+) came to 101.6±0.90%. The “concentration from which the vasodilator effect started” value in series [1] (dose-response curve, E+) was ≥ 10^−9 M. The Emax in series [3] (setting [8]) stood at 114 ± 6.19%.
Turning to `C=C(C)C1Cc2cc(C(C)=NO)c(O)cc2O1` (centres unmarked) [Oxime (2), 6-hydroxy-2-isopropenyl-5-acetyloxime-2,3-dihydrobenzofuran], the “Emax (% relaxation)” value in series [1] (compound at 10^−4 M, rings with intact endothelium (E+) pre-contracted with 1 μM PHE, FIG. 5A) was 118.4±0.93%. Besides, in series [1] (dose-response curve, E+), the “concentration from which the vasodilator effect started” value is on record as ≥ 10^−8 M. For the same molecule, the EC50 in series [1] (dose-response curve, E+) was 4.3 nM; in series [3] (E−) it was 4.65 nM. Also, the “Emax (% relaxation) of dose-response curve” value in series [1] (maximum effect at 10^−4 M, increasing doses, E+) is recorded as 109.3±2.72%; in series [3] (increasing doses up to 10^−4 M, E−) it was 110.3±4.40%. In addition, the “Emax, maximum relaxation effect” value in series [3] (compound at 10^−4 M, rings without endothelium (E−) pre-contracted with 1 μM PHE, FIG. 5B) is 117.7±1.00%.
`CC(C)NCC(O)COc1cccc2ccccc12` (centres unmarked) [propranolol, reference compound]: in series [2] (setting [12]), the “% MBP reduction” value was 18.99 ± 4.35% and 22.29 ± 3.20%; the MBP is 110.1 ± 6.03 mmHg and 108.70 ± 8.55 mmHg.
